According to the NIST ThermoML archive (doi:10.1016/j.jct.2006.03.016):

Assay: molar heat capacity at constant pressure
Conditions: 101.33 kPa, Crystal, Small (less than 1 g) adiabatic calorimetry

[Al+3].[Al+3].[O-2].[O-2].[O-2] [aluminum oxide (Al2O3)]
Conditions | molar heat capacity at constant pressure [J/K/mol]
67.51 K | 4.23
72.34 K | 5.283
77.04 K | 6.242
81.8 K | 7.403
86.61 K | 8.725
91.44 K | 10.14
96.31 K | 11.67
101.2 K | 13.33
106.12 K | 15.05
111.05 K | 16.78
116.01 K | 18.55
120.97 K | 20.4
125.95 K | 22.45
126.3 K | 22.61
130.94 K | 24.45
131.11 K | 24.51
136.11 K | 26.55
141.13 K | 28.63
146.18 K | 30.36
151.22 K | 32.53
156.26 K | 34.6
161.32 K | 36.54
166.38 K | 38.67
171.45 K | 40.51
176.54 K | 42.37
181.62 K | 44.42
186.71 K | 46.27
191.8 K | 48.19
192.43 K | 48.27
197.63 K | 50.37
202.75 K | 52.12
207.86 K | 53.85
212.97 K | 55.55
218.09 K | 57.33
223.2 K | 59.08
228.33 K | 60.72
233.45 K | 62.37
238.56 K | 63.95
243.82 K | 65.47
248.97 K | 66.83
253.98 K | 68.28
259.13 K | 69.78
264.27 K | 71.19
269.43 K | 72.53
274.59 K | 73.76
279.73 K | 74.97
284.88 K | 76.16
290.03 K | 77.34
295.19 K | 78.6
300.35 K | 79.79
305.76 K | 80.81
311 K | 82
316.16 K | 83.02
321.33 K | 83.65
326.51 K | 84.83
331.66 K | 86.08

O=C(O)c1ccccc1 [benzoic acid]
Conditions | molar heat capacity at constant pressure [J/K/mol]
15.95 K | 7.243
17.21 K | 7.834
19 K | 9.964
20.93 K | 12.14
22.91 K | 14.48
25.23 K | 16.99
27.83 K | 19.32
30.45 K | 22.55
33.46 K | 25.66
36.82 K | 28.56
40.35 K | 31.83
42.49 K | 34.49
44.38 K | 35.05
46.36 K | 38.04
50.06 K | 39.2
52.26 K | 40.57
54.24 K | 41.94
54.48 K | 43.06
56.71 K | 43.66
59.17 K | 46.1
59.64 K | 45.51
63.04 K | 47.67
67.38 K | 50.03
72.18 K | 52.48
77.01 K | 54.7
81.66 K | 56.45
86.47 K | 58.38
91.42 K | 60.83
96.33 K | 62.66
101.31 K | 64.69
106.39 K | 66.75
111.42 K | 68.59
116.46 K | 70.27
121.51 K | 72.23
126.57 K | 74.39
131.52 K | 76.4
136.54 K | 78.39
141.64 K | 80.14
146.72 K | 81.95
151.83 K | 83.84
156.96 K | 85.94
162.08 K | 87.95
167.21 K | 90.16
172.34 K | 92.08
177.47 K | 93.88
182.61 K | 95.82
187.75 K | 97.76
192.89 K | 100.22
198.03 K | 102.35
203.11 K | 104.33
208.2 K | 106.33
213.34 K | 108.35
218.49 K | 110.69
223.64 K | 113.13
228.8 K | 115.06
233.96 K | 117.66
239.1 K | 120.1
244.26 K | 122.38
249.39 K | 124.56
254.51 K | 127.05
259.67 K | 129.62
264.84 K | 131.98
269.99 K | 134.13
275.13 K | 137.14
280.31 K | 138.73
285.48 K | 141.06
290.65 K | 143.42
296.6 K | 146.34
302.17 K | 148.97
306.93 K | 151.12
312.15 K | 153.27
317.33 K | 155.37
322.49 K | 157.74
326.5 K | 160.6
330.48 K | 161.44
335.65 K | 163.8
340.82 K | 165.96

[Cu] [copper]
Conditions | molar heat capacity at constant pressure [J/K/mol]
14.2 K | 0.1027
15.68 K | 0.2097
16.38 K | 0.2384
16.77 K | 0.2351
17.8 K | 0.3079
19.33 K | 0.4049
21 K | 0.5507
22.76 K | 0.7024
24.89 K | 0.9364
27.19 K | 1.257
29.54 K | 1.621
32.17 K | 2.071
35.07 K | 2.634
35.81 K | 2.796
38.36 K | 3.344
38.95 K | 3.483
42.31 K | 4.276
46.05 K | 5.166
50.21 K | 6.197
54.08 K | 7.128
54.62 K | 7.296
56.1 K | 7.632
58.53 K | 8.226
59.11 K | 8.36
59.5 K | 8.478
63.71 K | 9.435
63.87 K | 9.508
68.55 K | 10.6
73.28 K | 11.6
78.07 K | 12.55
82.91 K | 13.41
87.8 K | 14.23
92.71 K | 15
93.13 K | 15.06
97.66 K | 15.72
97.7 K | 15.7
102.69 K | 16.38
107.7 K | 16.96
112.73 K | 17.49
117.78 K | 18.01
122.84 K | 18.49
127.92 K | 18.95
133 K | 19.37
138.1 K | 19.74
143.21 K | 20.06
148.33 K | 20.36
151.4 K | 20.55
153.45 K | 20.66
156.5 K | 20.85
158.58 K | 20.95
161.61 K | 21.11
166.74 K | 21.37
171.89 K | 21.59
177.04 K | 21.77
182.2 K | 21.94
187.36 K | 22.15
192.53 K | 22.25
197.69 K | 22.35
202.86 K | 22.6
203.62 K | 22.66
208.02 K | 22.73
208.7 K | 22.81
213.88 K | 22.96
219.05 K | 23.11
224.22 K | 23.25
229.39 K | 23.33
234.57 K | 23.45
239.76 K | 23.52
244.94 K | 23.6
247.71 K | 23.62
250.12 K | 23.7
253.15 K | 23.76
255.31 K | 23.79
261.84 K | 23.83
270.43 K | 24.07
275.79 K | 24.13
280.97 K | 24.2
286.16 K | 24.27
291.35 K | 24.32
296.54 K | 24.39
301.73 K | 24.51
306.93 K | 24.55
312.11 K | 24.54
317.29 K | 24.59
322.48 K | 24.64
327.67 K | 24.69
332.85 K | 24.81
338.04 K | 24.86
343.25 K | 24.88
348.43 K | 25.04
